# According to patent US10328077B2 (CELGENE CORPORATION, priority 2016, dated 2019):
# Counter-ions that a name gives are not always drawn.
# Target: human LSD-1 (Homo sapiens (Human), UniProt O60341)
# Experiment: In vitro enzyme inhibition assay LSD-1 (TR-FRET)
# Assay type: biochemical
# Conditions: not given
# Text: This assay determines the ability of a test compound to inhibit LSD-1 demethylase activity.
# The enzymatic assay of LSD-1 activity is based on Time Resolved-Fluorescence Resonance Energy Transfer (TR-FRET) detection.
row,Structure (SMILES),IC50 [nM]
1,"COc1ccc(-c2c(-c3ccc(C#N)c(F)c3)nc(N(C)C3CCNCC3)n(C)c2=O)cc1 [Example 55, 2-fluoro-4-[5-(4-methoxy-phenyl)-1-methyl-2-(methyl-piperidin-4-yl-amino)-6-oxo-1,6-dihydro-pyrimidin-4-yl]-benzonitrile]",< 100

# Same assay, conditions: TR-FRET, H3K4me1-biotin labeled peptide
row,Structure (SMILES),IC50 [nM]
1,"COc1ccc(-c2c(-c3ccc(C#N)cc3)nc(NC[C@H]3CCNC3)n(C)c2=O)cc1F [Example 44, 4-{5-(3-fluoro-4-methoxy-phenyl)-1-methyl-6-oxo-2-[(3S)-(pyrrolidin-3-ylmethyl)-amino]-1,6-dihydro-pyrimidin-4-yl}-benzonitrile]",< 100
2,"COc1c(F)cc(-c2c(-c3ccc(C#N)cc3)nc(N3CCC(N)CC3)n(C)c2=O)cc1F [Example 38, 4-[2-(4-aminopiperidyl)-5-(3,5-difluoro-4-methoxyphenyl)-1-methyl-6-oxohydropyrimidin-4-yl]benzenecarbonitrile]",< 100
3,COc1ccc(-c2c(-c3ccc(C#N)cc3)nc(N3CCCNCC3)n(C)c2=O)cn1 [Example 62],< 100
4,"COc1ccc(-c2c(-c3ccc(C#N)c(F)c3)nc(N3CCNCC3)n(C)c2=O)cc1F [Example 47, 2-fluoro-4-[5-(3-fluoro-4-methoxy-phenyl)-1-methyl-6-oxo-2-piperazin-1-yl-1,6-dihydro-pyrimidin-4-yl]-benzonitrile]",< 100
5,"CN(C)c1ccc(-c2c(-c3ccc(C#N)c(F)c3)nc(N3CCC(N)CC3)n(C)c2=O)cn1 [Example 57, 4-[2-(4-amino-piperidin-1-yl)-5-(6-dimethylamino-pyridin-3-yl)-1-methyl-6-oxo-1,6-dihydro-pyrimidin-4-yl]-2-fluoro-benzonitrile]",< 100
6,"COc1ccc(-c2c(-c3ccc(C#N)c(F)c3)nc(N3CCC(N)CC3)n(CC(N)=O)c2=O)cc1 [Example 16, 2-[2-(4-amino-piperidin-1-yl)-4-(4-cyano-3-fluoro-phenyl)-5-(4-methoxy-phenyl)-6-oxo-6H-pyrimidin-1-yl]-acetamide]",< 100
7,"Cn1c(N2CCC(N)CC2)nc(-c2ccc(C#N)c(F)c2)c(C#N)c1=O [Example 121, 2-(4-amino-piperidin-1-yl)-4-(4-cyano-3-fluoro-phenyl)-1-methyl-6-oxo-1,6-dihydro-pyrimidine-5-carbonitrile]",100 to 1000
8,"Cn1c(N2CCC(N)CC2)nc(-c2ccc(C#N)c(F)c2)c(-c2ccc(F)cc2)c1=O [Example 101, 4-[2-(4-aminopiperidin-1-yl)-5-(4-fluorophenyl)-1-methyl-6-oxopyrimidin-4-yl]-2-fluorobenzonitrile]",< 100
9,"COc1ccc(-c2c(-c3ccccc3C#N)nc(N3CCC(N)CC3)n(C)c2=O)cc1F [Example 119, 2-[2-(4-aminopiperidin-1-yl)-5-(3-fluoro-4-methoxyphenyl)-1-methyl-6-oxopyrimidin-4-yl]benzonitrile]",> 10000
10,"Cc1ccc(-c2c(-c3ccc(C#N)c(F)c3)nc(N3CCC(N(C)C)CC3)n(C)c2=O)cn1 [Example 82, 4-[2-(4-dimethylamino-piperidin-1-yl)-1-methyl-5-(6-methyl-pyridin-3-yl)-6-oxo-1,6-dihydro-pyrimidin-4-yl]-2-fluoro-benzonitrile]",< 100
11,C#Cc1c(-c2ccc(C#N)c(F)c2)nc(N2CCC(N)CC2)n(C)c1=O [Example 110],< 100
12,"CN(C)c1ncc(-c2c(-c3ccc(C#N)c(F)c3)nc(N3CCC(N(C)C)CC3)n(C)c2=O)cn1 [Example 81, 4-[2′-dimethylamino-2-(4-dimethylamino-piperidin-1-yl)-1-methyl-6-oxo-1,6-dihydro-[5,5′]bipyrimidinyl-4-yl]-2-fluoro-benzonitrile]",< 100
13,"Cn1c(N2CCC(N)CC2)nc(-c2ccccc2)c(-c2ccc3c(ccn3C)c2)c1=O [Example 114, 2-(4-amino-piperidin-1-yl)-3-methyl-5-(1-methyl-1H-indol-5-yl)-6-phenyl-3H-pyrimidin-4-one]",> 10000
14,"COc1ccc(-c2c(-c3cccc(C#N)c3)nc(N3CCC(N)CC3)n(C)c2=O)cc1F [Example 118, 3-[2-(4-aminopiperidin-1-yl)-5-(3-fluoro-4-methoxyphenyl)-1-methyl-6-oxopyrimidin-4-yl]benzonitrile]",> 10000
15,"COc1ccc(-c2c(-c3ccc(C#N)c(F)c3)nc(NC3CCNCC3)n(C)c2=O)cc1 [Example 53, 2-fluoro-4-[5-(4-methoxy-phenyl)-1-methyl-6-oxo-2-(piperidin-4-ylamino)-1,6-dihydro-pyrimidin-4-yl]-benzonitrile]",< 100
16,"Cn1c(N2CCC(N)CC2)nc(-c2ccc(C#N)c(F)c2)c(C#N)c1=O [Example 19, 2-(4-amino-piperidin-1-yl)-4-(4-cyano-3-fluoro-phenyl)-1-methyl-6-oxo-1,6-dihydro-pyrimidine-5-carbonitrile]",< 100
17,"CNC1CCN(c2nc(-c3ccc(C#N)c(F)c3)c(-c3ccc(C)nc3)c(=O)n2C)CC1 [Example 21, 2-fluoro-4-[1-methyl-2-(4-methylamino-piperidin-1-yl)-5-(6-methyl-pyridin-3-yl)-6-oxo-1,6-dihydro-pyrimidin-4-yl]-benzonitrile]",< 100
18,"COc1ncc(-c2c(-c3ccc(C#N)c(F)c3)nc(N3CCC(N)CC3)n(C)c2=O)cc1F [Example 26, 4-[2-(4-aminopiperidyl)-5-(5-fluoro-6-methoxy(3-5,6-dihydropyridyl))-1-methyl-6-oxohydropyrimidin-4-yl]-2-fluorobenzenecarbonitrile]",< 100
19,"COc1ccc(-c2c(-c3ccc(C#N)cc3)nc(NC[C@@H]3CCNC3)n(C)c2=O)cc1F [Example 45, 4-{5-(3-fluoro-4-methoxy-phenyl)-1-methyl-6-oxo-2-[(3R)-(pyrrolidin-3-ylmethyl)-amino]-1,6-dihydro-pyrimidin-4-yl}-benzonitrile]",< 100
20,"Cn1c(N2CCC(N)CC2)nc(-c2ccc(C#N)c(F)c2)cc1=O [Example 108, 4-[2-(4-aminopiperidin-1-yl)-1-methyl-6-oxopyrimidin-4-yl]-2-fluorobenzonitrile]",< 100
21,"COc1ccc(-c2c(-c3ccc(C#N)c(F)c3)nc(N3CCC(N)CC3)n(CC(=O)O)c2=O)cc1 [Example 15, [2-(4-amino-piperidin-1-yl)-4-(4-cyano-3-fluoro-phenyl)-5-(4-methoxy-phenyl)-6-oxo-6H-pyrimidin-1-yl]-acetic acid]",< 100
22,"COc1ccc(-c2c(-c3ccc(C#N)c(F)c3)nc(N3CCCNCC3)n(C)c2=O)cn1 [Example 61, 4-[2-[1,4]diazepan-1-yl-5-(6-methoxy-pyridin-3-yl)-1-methyl-6-oxo-1,6-dihydro-pyrimidin-4-yl]-2-fluoro benzonitrile]",< 100
23,"COc1ccc(-c2c(-c3ccc(C#N)c(F)c3)nc(N3CCC[C@H](N)C3)n(C)c2=O)cc1F [Example 28, 4-[2-((3S)-3-amino-piperidin-1-yl)-5-(3-fluoro-4-methoxy-phenyl)-1-methyl-6-oxo-1,6-dihydro-pyrimidin-4-yl]-2-fluoro-benzonitrile]",< 100
24,"CNC(=O)c1ccc(-c2c(-c3ccc(C#N)cc3)nc(N3CCC(N)CC3)n(C)c2=O)cc1F [Example 40, {4-[2-(4-aminopiperidyl)-6-(4-cyanophenyl)-3-methyl-4-oxo-(3-hydropyrimidin-5-yl)]-2-fluorophenyl}-N-methylcarboxamide]",< 100
25,"COc1ccc(-c2c(-c3ccc(C#N)c(F)c3)nc(N3CC(CN)C3)n(C)c2=O)cc1 [Example 69, 4-[2-(3-aminomethyl-azetidin-1-yl)-5-(4-methoxy-phenyl)-1-methyl-6-oxo-1,6-dihydro-pyrimidin-4-yl]-2-fluoro-benzonitrile]",< 100

# System: CD11b expression in THP-1 (AML) cells
# Experiment: LSD-1 CD11b cellular assay (flow cytometry)
# Conditions: Homo sapiens, THP-1, 96 h, read-out: THP-1 IC50
# Method: To analyze LSD-1 inhibitor efficacy in cells, a CD11b flow cytometry assay was performed. […] LSD-1 test compounds were serially diluted in DMSO. The dilutions were added to each well accordingly to a final concentration of 0.2% DMSO. The cells were incubated at 37 degrees Celsius in 5% CO2 for 4 days. 250 μL of each well was transferred to a well in a 96 well round bottom plate. The plate was centrifuged at 1200 rpm at 4 degrees Celsius in a Beckman Coulter Alegra 6KR centrifuge for 5 minutes. The media was removed leaving the cells at the bottom of the wells. The cells were washed in 100 μL cold HBSS (Hank's Balanced Salt Solution) plus 2% BSA (Bovine Serum Albumin) solution and centrifuged at 1200 rpm at 4 degrees Celsius for 5 minutes. The wash was removed. […] The cells were centrifuged and washed two times in 100 μl HBSS plus 2% BSA. After the final spin the cells were resuspended in 100 μL HBSS plus 2% BSA containing 1 μg/mL DAPI (4′,6-diamidino-2-phenylindole). The cells were then analyzed by flow cytometry in a BD FACSAria machine. Cells were analyzed for CD11b expression. The percent of CD11b expressing cells for each inhibitor concentration was used to determine an IC50 curve for each compound analyzed.
row,Structure (SMILES),IC50 [nM]
1,"COc1c(F)cc(-c2c(-c3ccc(C#N)cc3)nc(N3CCC(N)CC3)n(C)c2=O)cc1F [Example 38, 4-[2-(4-aminopiperidyl)-5-(3,5-difluoro-4-methoxyphenyl)-1-methyl-6-oxohydropyrimidin-4-yl]benzenecarbonitrile]",< 100
2,"CN(C)c1ccc(-c2c(-c3ccc(C#N)c(F)c3)nc(N3CCC(N)CC3)n(C)c2=O)cn1 [Example 57, 4-[2-(4-amino-piperidin-1-yl)-5-(6-dimethylamino-pyridin-3-yl)-1-methyl-6-oxo-1,6-dihydro-pyrimidin-4-yl]-2-fluoro-benzonitrile]",< 100
3,"COc1ccc(-c2c(-c3ccc(C#N)c(F)c3)nc(N3CCC(N)CC3)n(CC(N)=O)c2=O)cc1 [Example 16, 2-[2-(4-amino-piperidin-1-yl)-4-(4-cyano-3-fluoro-phenyl)-5-(4-methoxy-phenyl)-6-oxo-6H-pyrimidin-1-yl]-acetamide]",< 100
4,"Cn1c(N2CCC(N)CC2)nc(-c2ccc(C#N)c(F)c2)c(-c2ccc3c(ccn3C)c2)c1=O [Example 74, 4-[2-(4-amino-piperidin-1-yl)-1-methyl-5-(1-methyl-1H-indol-5-yl)-6-oxo-1,6-dihydro-pyrimidin-4-yl]-2-fluoro-benzonitrile]",< 100
5,"Cn1c(N2CCC(N)CC2)nc(-c2ccc(C#N)c(F)c2)c(-c2ccc(C(F)(F)F)nc2)c1=O [Example 23, 4-{2-(4-aminopiperidyl)-1-methyl-6-oxo-5-[6-(trifluoromethyl) (3-pyridyl)] hydropyrimidin-4-yl}-2-fluorobenzenecarbonitrile]",< 100
6,"Cn1c(N2CCC(N)CC2)nc(-c2ccc(C#N)c(F)c2)c(-c2ccc3cc[nH]c3c2)c1=O [Example 75, 4-[2-(4-amino-piperidin-1-yl)-5-(1H-indol-6-yl)-1-methyl-6-oxo-1,6-dihydro-pyrimidin-4-yl]-2-fluoro-benzonitrile]",< 100
7,"COc1ccc(-c2c(-c3ccc(Cl)c(F)c3)nc(N3CCC(N)CC3)n(C)c2=O)cc1 [Example 111, 2-(4-amino-piperidin-1-yl)-6-(4-chloro-3-fluoro-phenyl)-5-(4-methoxy-phenyl)-3-methyl-3H-pyrimidin-4-one]",100 to 1000
8,"Cn1c(N2CCC(N)CC2)nc(-c2ccc(C#N)cc2)c(-c2ccc3c(cnn3C)c2)c1=O [Example 33, 4-[2-(4-aminopiperidyl)-1-methyl-5-(1-methyl(1H-indazol-5-yl))-6-oxohydropyrimidin-4-yl]benzenecarbonitrile]",< 100
9,"Cc1ccc(-c2c(-c3ccc(C#N)cc3)nc(N3CCC(N)CC3)n(C)c2=O)cc1 [Example 1, 4-(2-(4-aminopiperidin-1-yl)-1-methyl-6-oxo-5-p-tolyl-1,6-dihydropyrimidin-4-yl)benzonitrile, HCl salt]",< 100
10,"COc1ccc(-c2c(-c3ccc(C#N)cc3)nc(N3CCC(N)CC3)n(C)c2=O)cc1 [Example 2, 4-[2-(4-amino-piperidin-1-yl)-5-(4-methoxy-phenyl)-1-methyl-6-oxo-1,6-dihydro-pyrimidin-4-yl]-benzonitrile]",< 100
